Tests used:
human recombinant PDE2A1 = target: T1, human recombinant PDE2A1 (Homo sapiens, UniProt O00408); test: AlphaScreen cGMP PDE assay, PDE2; assay type: biochemical; conditions: n = 3
T1 construct: FLAG (N); purchased BPS Bioscience 0021
Experimental: (§1) Phosphodiesterase inhibitory activity of the test items prepared according to the procedure in example 2 and outlined in table 2 were measured using the AlphaScreen® assay technology. Materials and methods were according to technical instructions given by Perkin Elmer (www.perkinelmer.com; “Application note “AlphaScreen cGMP Phosphodiesterase Assay Using AlphaScreen cGMP Supplement with Anti-cGMP Antibody”; Authors: Martin Boissonneault, Christian Fafard, Joe Trometer, Chantal Illy, Stéphane Parent, and Roger Bossé; PerkinElmer Life and Analytical Sciences, 710 Bridgeport Avenue, Shelton, Conn. 06484 USA).
(§2) The AlphaScreen cGMP PDE assay used PerkinElmer's AlphaScreen cGMP supplement with antibody (cat. no. 6760308M or 6760308R) which consists of a biotinylated cGMP derivative and an anti-cGMP antibody. The assay also requires the AlphaScreen Protein A detection kit (PerkinElmer cat. no. 6760617), composed of Protein A acceptor beads and Streptavidin donor beads. The human recombinant PDE5A (N-terminal GST, cat no 60050) and PDE2A1 (N-terminal FLAG tag, cat no 0021) were purchased from BPS Bioscience, San Diego, United States. […]
(§3) 1—Add 5 μL of inhibitor* * Please note that for compound screening purposes, adding […] of test compounds to 4.5 μL of cGMP substrate solution prepared in the PDE reaction Buffer is recommended. […] 2—Add 5 μL of PDE (5U per well) 3—Incubate 120 minutes at 23° C. for enzymatic cleavage of unlabeled cGMP 4—Add 5 μL of the AlphaScreen cGMP Supplement (1 nM final) 5—Add 10 μL Detection mix (anti-cGMP antibody/Streptavidin-Donor beads (20 μg/mL final)/Protein A-Acceptor beads (20 μg/mL final)) 6—Incubate the plate for 1 hour at room temperature in the dark and detect the AlphaScreen signal using the microplate analyzer PHERAstar reader.

human recombinant PDE5A = target: T2, human recombinant PDE5A (Homo sapiens, UniProt O76074); test: AlphaScreen cGMP PDE assay, PDE5; assay type: biochemical; conditions: n = 3
T2 construct: GST (N); purchased BPS Bioscience 60050
Experimental: as §1, §2, §3

T1 sequence (O00408 1-920 isoform O00408-2): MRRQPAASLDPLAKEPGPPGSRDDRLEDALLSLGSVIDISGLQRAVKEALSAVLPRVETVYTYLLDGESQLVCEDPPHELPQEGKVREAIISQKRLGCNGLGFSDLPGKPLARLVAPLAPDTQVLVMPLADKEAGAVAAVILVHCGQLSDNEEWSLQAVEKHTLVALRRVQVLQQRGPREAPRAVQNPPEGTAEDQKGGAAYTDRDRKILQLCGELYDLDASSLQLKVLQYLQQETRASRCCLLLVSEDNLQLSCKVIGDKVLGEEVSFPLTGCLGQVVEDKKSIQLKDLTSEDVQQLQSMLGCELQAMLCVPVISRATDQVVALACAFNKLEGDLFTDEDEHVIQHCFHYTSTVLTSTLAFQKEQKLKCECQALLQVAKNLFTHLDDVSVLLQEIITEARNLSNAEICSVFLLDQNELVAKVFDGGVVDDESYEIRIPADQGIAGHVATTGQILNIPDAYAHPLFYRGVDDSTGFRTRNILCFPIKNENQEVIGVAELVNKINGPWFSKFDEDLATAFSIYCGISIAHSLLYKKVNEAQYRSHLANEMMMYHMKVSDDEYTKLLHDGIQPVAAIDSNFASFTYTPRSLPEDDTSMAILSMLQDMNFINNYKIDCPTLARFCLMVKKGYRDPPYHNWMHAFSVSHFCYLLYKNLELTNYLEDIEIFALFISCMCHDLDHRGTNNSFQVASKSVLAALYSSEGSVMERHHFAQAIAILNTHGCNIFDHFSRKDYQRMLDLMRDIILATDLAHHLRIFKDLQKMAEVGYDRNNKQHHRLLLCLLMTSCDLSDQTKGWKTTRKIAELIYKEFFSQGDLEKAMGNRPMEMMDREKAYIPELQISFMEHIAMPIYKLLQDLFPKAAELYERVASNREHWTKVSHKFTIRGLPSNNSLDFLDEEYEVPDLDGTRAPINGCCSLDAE

Compound	% inhibition of PDE-2 (human recombinant PDE2A1; Reference at 10 μM) [%]	% inhibition of PDE-2 (human recombinant PDE2A1; reference at 1 μM) [%]	% inhibition of PDE-2 (human recombinant PDE2A1; reference at 5 μM) [%]	inhibition at 1 µM (human recombinant PDE5A; reference at 1 μM) [%]	inhibition at 5 µM (human recombinant PDE5A; reference at 5 μM) [%]	inhibition at 19 µM (human recombinant PDE5A; reference at 19 μM) [%]
CCCCCCC(C(C)O)n1cnc2c(N)ncnc21.Cl (stereo not drawn) [EHNA]	98	33	73	–	–	–
CCCOc1ccccc1-c1nc2nn[nH]c2c(=O)[nH]1 [Zaprinast]	–	–	–	57	81	88
